Data taken from ChEMBL document CHEMBL1857833, “Screening and optimization of specific chemical series against human African Trypanosomiasis (HAT)”.
Converted amounts (≈) assume the structure as drawn.

Legend:
in vitro = conditions: mouse, liver microsomes, t (1 / 2)
Description: DNDI: half life in mouse liver microsomes at a concentration of 1uM

Trypanosoma brucei = assay: DNDI: Inhibition of Human African Trypanosomiasis, SBRI 427, in vitro; type: functional, organism-based; conditions: Trypanosoma brucei, SBRI 427; read-out: IC50
[1] = mouse, microsomes, 1 µM
Description: DNDI: in vitro intrinsic clearance in mouse liver microsomes at a concentration of 1uM

[2] = DNDI: Cytotoxicity against L929 mouse fibroblasts, 72 hour.; type: toxicity, cell-based; conditions: mouse, L929 mouse fibroblasts
[3] = DNDI: Cytotoxicity against L929 mouse fibroblasts, CYTO-SP, 24 hour; type: toxicity, cell-based; conditions: mouse, L929 mouse fibroblasts

Structure (SMILES) | half-life at 1 µM (in vitro) | IC50 (Trypanosoma brucei) | CLint in vitro [1] | IC50 at 72 h [2] | IC50 at 24 h [3]
Cc1ccc(Cc2ccccc2/C(=N/O)NC2CCCCC2)cc1 | 3 min | 1.17 µg/mL (≈ 3.63 µM) | 318 µL/min/mg | 3.48 µg/mL (≈ 10.8 µM) | 
CCOCCCNC(c1nc(-c2ccccc2)c(N2CCCCC2)o1)C(C)CC (stereo not given) | 3 min | 2.72 µg/mL (≈ 6.81 µM) | 255 µL/min/mg | 4.44 µg/mL (≈ 11.1 µM) | 
CCCCc1ccc(-c2nc(CNCC)co2)cc1 | 11 min | 0.89 µg/mL (≈ 3.44 µM) | 76 µL/min/mg | 5.42 µg/mL (≈ 21 µM) | 
CCCCCC(C)NCc1coc(-c2ccc(OCCOCC)cc2)n1 (stereo not given) | 20 min | 1.57 µg/mL (≈ 4.36 µM) | 42 µL/min/mg | 5.78 µg/mL (≈ 16 µM) | 
CCc1ccccc1N/C(=N\O)c1ccccc1-c1ccccc1 | 4 min | > 5 µg/mL | 209 µL/min/mg |  | 16.3 µg/mL (≈ 51.5 µM)
CCC(C)C(NCc1ccco1)c1nc(-c2ccccc2)c(N2CCCCC2)o1 (stereo not given) | 4 min | 4.9 µg/mL (≈ 12.5 µM) | 206 µL/min/mg | > 10 µg/mL | 
O/N=C(\NC1CCCCC1)c1ccc(-c2ccccc2)cc1 | 3 min | > 5 µg/mL | 280 µL/min/mg |  | 36 µg/mL (≈ 122 µM)
COc1ccccc1CNC(CCc1ccccc1)c1nc(-c2ccccc2)c(N2CCOCC2)o1 (stereo not given) | 2 min | 4.15 µg/mL (≈ 8.58 µM) | 344 µL/min/mg | > 10 µg/mL | 
O/N=C(\NC1CCCCC1)c1ccccc1Cc1ccccc1 | 2 min | 1.19 µg/mL (≈ 3.86 µM) | 381 µL/min/mg | 4.57 µg/mL (≈ 14.8 µM) | 
CCCCc1ccc(-c2nc(CNCc3cccnc3)co2)cc1 | 19 min | > 5 µg/mL | 44 µL/min/mg | > 10 µg/mL | 
CCCCc1ccc(-c2nc(CN3CCOCC3)co2)cc1 | 2 min | > 5 µg/mL | 348 µL/min/mg | > 10 µg/mL | 
CCCCCC(C)NCc1coc(-c2ccc(C3CCCCC3)cc2)n1 (stereo not given) | 232 min | 0.22 µg/mL (≈ 0.621 µM) | 4 µL/min/mg | 0.67 µg/mL (≈ 1.89 µM) | 
CCCCCC(C)NCc1coc(-c2ccc(Oc3ccc(OC)cc3)cc2)n1 (stereo not given) | 34 min | 1.29 µg/mL (≈ 3.27 µM) | 25 µL/min/mg | 5.61 µg/mL (≈ 14.2 µM) | 
CCCCCC(C)NCc1coc(-c2ccc(OC3CCC3)cc2)n1 (stereo not given) | 98 min | 0.88 µg/mL (≈ 2.57 µM) | 9 µL/min/mg | 2.36 µg/mL (≈ 6.89 µM) | 
O=C(NC1CCCCC1)c1ccccc1-c1ccccc1 | 7 min | > 5 µg/mL | 116 µL/min/mg |  | > 50 µg/mL
Cc1cccc(CNC(c2ccccc2)c2nc(Cc3ccccc3)c(N3CCOCC3)o2)c1 (stereo not given) | 4 min | 5 µg/mL (≈ 11 µM) | 217 µL/min/mg | > 10 µg/mL | 
CCCCCC(C)NCc1coc(-c2ccc(Oc3ccc(Cl)cc3)cc2)n1 (stereo not given) | 313 min | 0.34 µg/mL (≈ 0.852 µM) | 3 µL/min/mg | 2.07 µg/mL (≈ 5.19 µM) | 
CCc1ccc(Oc2ncccc2/C(=N\O)NC2CCCC[C@H]2N)cc1 (stereo not given in full) | 353 min | > 5 µg/mL | 2 µL/min/mg | > 10 µg/mL | 
CC(C)(C)CNCc1coc(-c2ccc(OCC(C)(C)C)cc2)n1 | 267 min | 0.42 µg/mL (≈ 1.27 µM) | 3 µL/min/mg | 1.35 µg/mL (≈ 4.09 µM) | 
CCCCCC(C)NCc1coc(-c2ccc(C)c(OC)c2)n1 (stereo not given) | 10 min | 1.6 µg/mL (≈ 5.06 µM) | 87 µL/min/mg | 5.27 µg/mL (≈ 16.7 µM) | 

Structure (SMILES) | half-life at 1 µM (in vitro) | IC50 (Trypanosoma brucei) | CLint in vitro [1] | IC50 at 72 h [2] | IC50 at 24 h [3]
CCCCc1ccc(-c2nc(CN3CCN(C)CC3)co2)cc1 | 27 min | 2.22 µg/mL (≈ 7.08 µM) | 31 µL/min/mg | 3.75 µg/mL (≈ 12 µM) | 
CCc1ccccc1N/C(=N\O)c1ccc(OC)cc1 | 2 min | > 5 µg/mL | 397 µL/min/mg |  | > 50 µg/mL
CC(C)Oc1ccc(-c2nc(CNC[C@@H]3CC[C@H]4C[C@@H]3C4(C)C)co2)cc1 | 19 min | 1.06 µg/mL (≈ 2.88 µM) | 45 µL/min/mg | 1.36 µg/mL (≈ 3.69 µM) | 
CCCCc1ccc(-c2nc(CNC(C)C)co2)cc1 | 17 min | 2.22 µg/mL (≈ 8.15 µM) | 50 µL/min/mg | 5.7 µg/mL (≈ 20.9 µM) | 
Cc1cccc(C)c1/C(=N/O)NC1CCCCC1 | 11 min | > 5 µg/mL | 76 µL/min/mg |  | > 50 µg/mL
CCCCCC(C)NCc1coc(-c2ccc(Oc3ccc(C)cc3)cc2)n1 (stereo not given) | 70 min | 0.3 µg/mL (≈ 0.793 µM) | 12 µL/min/mg | 1.42 µg/mL (≈ 3.75 µM) | 
COc1ccccc1CNC(c1nc(-c2ccccc2)c(N2CCOCC2)o1)C1CC1 (stereo not given) | 3 min | 5 µg/mL (≈ 11.9 µM) | 300 µL/min/mg | > 10 µg/mL | 
CCCCCC(C)NCc1coc(Cc2ccc(OC)cc2)n1 (stereo not given) | 16 min | 3.24 µg/mL (≈ 10.2 µM) | 55 µL/min/mg | 10 µg/mL (≈ 31.6 µM) | 
COc1ccc(N/C(=N/O)c2ccccc2-c2ccccc2)cc1 | 5 min | > 5 µg/mL | 166 µL/min/mg |  | > 50 µg/mL
CCCCCC(C)NCc1coc(-c2ccc(OCCc3ccccc3)cc2)n1 (stereo not given) | 22 min | 0.39 µg/mL (≈ 0.994 µM) | 39 µL/min/mg | 0.72 µg/mL (≈ 1.83 µM) | 
CCc1ccccc1/C(=N\O)NC1CCCCC1 | 7 min | 3.58 µg/mL (≈ 14.5 µM) | 128 µL/min/mg |  | > 50 µg/mL
CCCCCC(C)NCc1coc(-c2ccc(OCc3ccc(C)cc3)cc2)n1 (stereo not given) | 64 min | 0.31 µg/mL (≈ 0.79 µM) | 13 µL/min/mg | 1.27 µg/mL (≈ 3.24 µM) | 
CCCCCC(C)NCc1coc(-c2ccc(Oc3ccc(F)cc3)cc2)n1 (stereo not given) | 63 min | 0.44 µg/mL (≈ 1.15 µM) | 13 µL/min/mg | 1.63 µg/mL (≈ 4.26 µM) | 
Cc1ccc(/C(=N/O)NC2CCCCC2)c(Oc2c(F)cccc2F)n1 | 3 min | 1.05 µg/mL (≈ 2.91 µM) | 255 µL/min/mg | > 10 µg/mL | 
CCCCCC(C)NCc1coc(-c2ccc(OCCCC)c(F)c2)n1 (stereo not given) | 75 min | 0.37 µg/mL (≈ 1.02 µM) | 11 µL/min/mg | 0.73 µg/mL (≈ 2.01 µM) | 
Cc1ccc(/C(=N/O)Nc2cccc(F)c2)c(Oc2ccc(C(C)(C)C)cc2)n1 | 26.8 min | 0.32 µg/mL (≈ 0.813 µM) | 31.75 µL/min/mg | 5.39 µg/mL (≈ 13.7 µM) | 
COc1ccc(N/C(=N/O)c2ccc(OC)cc2)cc1 | 2 min | > 5 µg/mL | 376 µL/min/mg |  | > 50 µg/mL
CCCCc1ccc(-c2nc(CNC(C)CC)co2)cc1 (stereo not given) | 20 min | 0.74 µg/mL (≈ 2.58 µM) | 42 µL/min/mg | 2.75 µg/mL (≈ 9.6 µM) | 
CC(C)Oc1ccc(-c2nc(CN[C@@H]3C[C@@H]4C[C@H]([C@H]3C)C4(C)C)co2)cc1 | 79 min | 1.37 µg/mL (≈ 3.72 µM) | 11 µL/min/mg | 1.9 µg/mL (≈ 5.16 µM) | 
CCCCCC(C)NCc1coc(-c2ccc(OCc3ccc(Cl)cc3)cc2)n1 (stereo not given) | 41 min | 0.47 µg/mL (≈ 1.14 µM) | 21 µL/min/mg | 1.67 µg/mL (≈ 4.04 µM) | 
